Laboratory results as given in ChEMBL document CHEMBL1134053, “Structure-activity studies of 5-substituted pyridopyrimidines as adenosine kinase inhibitors” (Bioorg Med Chem Lett, 2001).

How the values were obtained:
Adenosine kinase [1] = target: T1, Adenosine kinase (Rattus norvegicus, UniProt Q64640); experiment: Inhibitory activity against intact cell adenosine kinase by ADO phosphorylation assay
Adenosine kinase [2] = target: T1, Adenosine kinase; experiment: Inhibitory activity against cytosolic adenosine kinase by ADO phosphorylation assay
Rattus norvegicus [3] = experiment: Tested for analgesic activity in vivo rat formalin nociception assay, administered by intraperitoneal injection to six animals at each dose. p<0.05; type: functional; conditions: ip
Rattus norvegicus [4] = experiment: Tested for analgesic activity in vivo rat carrageenan hyperalgesia assay, administered by intraperitoneal injection to six animals at each dose. p<0.05; type: functional; conditions: ip

T1 sequence (Q64640 whole entry): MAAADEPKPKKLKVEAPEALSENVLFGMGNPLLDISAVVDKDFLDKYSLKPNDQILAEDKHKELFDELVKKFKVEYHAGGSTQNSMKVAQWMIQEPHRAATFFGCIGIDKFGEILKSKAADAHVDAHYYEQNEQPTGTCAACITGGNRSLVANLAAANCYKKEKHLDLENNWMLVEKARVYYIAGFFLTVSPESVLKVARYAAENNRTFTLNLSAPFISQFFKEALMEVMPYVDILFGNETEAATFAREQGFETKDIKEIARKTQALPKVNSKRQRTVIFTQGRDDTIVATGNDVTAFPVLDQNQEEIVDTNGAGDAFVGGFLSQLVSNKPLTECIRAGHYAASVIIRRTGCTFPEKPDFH

| IC50 (Adenosine kinase [1]) | IC50 (Adenosine kinase [2]) | SMILES | ED50 (Rattus norvegicus [3]) | ED50 (Rattus norvegicus [4]) |
| --- | --- | --- | --- | --- |
| 225 nM | 36 nM | CN(C)c1ccc(-c2cc(-c3cccc(C(F)(F)F)c3)c3c(N)ncnc3n2)cc1 | – | – |
| 30 nM | 0.25 nM | CC(c1ccccc1Br)c1cc(-c2ccc(N3CCOCC3)nc2)nc2ncnc(N)c12 (stereo not drawn) | 10 µmol/kg | 10 µmol/kg |
| 115 nM | 9 nM | CCC(CC)c1cc(-c2ccc(N3CCOCC3)nc2)nc2ncnc(N)c12 | – | 30 µmol/kg |
| 800 nM | 17 nM | Nc1ncnc2nc(-c3ccc(N4CCOCC4)nc3)cc(C3CCOCC3)c12 | 30 µmol/kg | > 2 µmol/kg |
| > 1000 nM | 47 nM | Cc1cc(-c2ccc(N(C)C)cc2)nc2ncnc(N)c12 | – | – |
| 304 nM | 21 nM | C=CC(C)(C)c1cc(-c2ccc(N3CCOCC3)nc2)nc2ncnc(N)c12 | – | – |
| 102 nM | 0.23 nM | CC1CC(C)CC(c2cc(-c3ccc(N4CCOCC4)nc3)nc3ncnc(N)c23)C1 (stereo not drawn) | > 30 µmol/kg | 30 µmol/kg |
| 33 nM | 0.17 nM | Nc1ncnc2nc(-c3ccc(N4CCOCC4)nc3)cc(Cc3ccccc3Br)c12 | 30 µmol/kg | 3 µmol/kg |
| 400 nM | 85 nM | COc1cccc(-c2cc(-c3ccc(N(C)C)cc3)nc3ncnc(N)c23)c1 | – | – |
| 430 nM | 30 nM | Nc1ncnc2nc(-c3ccc(N4CCOCC4)nc3)cc(-c3ccc(Br)cc3)c12 | 30 µmol/kg | – |
| 550 nM | 11 nM | CCCCc1cc(-c2ccc(N(C)C)cc2)nc2ncnc(N)c12 | – | – |
| 825 nM | 55 nM | CN(C)c1ccc(-c2cc(C3CC3)c3c(N)ncnc3n2)cc1 | – | – |
| 315 nM | 62 nM | Nc1ncnc2nc(-c3ccc(N4CCOCC4)nc3)cc(-c3cccnc3)c12 | – | > 30 µmol/kg |
| 78 nM | 15 nM | CN(C)c1ccc(-c2cc(-c3cccc(Cl)c3)c3c(N)ncnc3n2)cc1 | – | – |
| 850 nM | 77 nM | CN(C)c1ccc(-c2cc(-c3cccc(C(N)=O)c3)c3c(N)ncnc3n2)cc1 | – | – |
| > 1000 nM | 562 nM | Nc1ncnc2nc(-c3ccc(N4CCOCC4)nc3)ccc12 | – | – |
| 325 nM | 35 nM | CN(C)c1ccc(-c2cc(-c3cccc(C#N)c3)c3c(N)ncnc3n2)cc1 | – | – |

| IC50 (Adenosine kinase [1]) | IC50 (Adenosine kinase [2]) | SMILES | ED50 (Rattus norvegicus [3]) | ED50 (Rattus norvegicus [4]) |
| --- | --- | --- | --- | --- |
| 470 nM | 8 nM | CN(C)c1ccc(-c2cc(C3CCCCC3)c3c(N)ncnc3n2)cc1 | – | – |
| > 10000 nM | 733 nM | CN(C)c1ccc(-c2ccc3c(N)ncnc3n2)cc1 | – | – |
| 378 nM | 38 nM | Nc1ncnc2nc(-c3ccc(N4CCOCC4)nc3)cc(-c3cc(Cl)ccc3Cl)c12 | – | – |
| 120 nM | 17 nM | CN(C)c1ccc(-c2cc(-c3cccc(I)c3)c3c(N)ncnc3n2)cc1 | – | – |
| 130 nM | 5 nM | Nc1ncnc2nc(-c3ccc(N4CCOCC4)nc3)cc(-c3cccc(Cl)c3Cl)c12 | – | 5 µmol/kg |
| 57 nM | 3 nM | Nc1ncnc2nc(-c3ccc(N4CCOCC4)nc3)cc(C3CCCCC3)c12 | 20 µmol/kg | 10 µmol/kg |
| 488 nM | 10 nM | Nc1ncnc2nc(-c3ccc(N4CCOCC4)nc3)cc(-c3ccco3)c12 | – | – |
| 550 nM | 13 nM | Nc1ncnc2nc(-c3ccc(N4CCOCC4)nc3)cc(-c3ccsc3)c12 | – | – |
| 80 nM | 2 nM | Nc1ncnc2nc(-c3ccc(N4CCOCC4)nc3)cc(C3CCCC3)c12 | – | 10 µmol/kg |
| 675 nM | 3 nM | Nc1ncnc2nc(-c3ccc(N4CCOCC4)nc3)cc(-c3ccccc3Br)c12 | 10 µmol/kg | 30 µmol/kg |
| 96 nM | 9 nM | Nc1ncnc2nc(-c3ccc(N4CCOCC4)nc3)cc(-c3cccc(Cl)c3)c12 | 10 µmol/kg | 20 µmol/kg |
| 353 nM | 44 nM | CN(C)c1ccc(-c2cc(-c3cccc(O)c3)c3c(N)ncnc3n2)cc1 | – | – |
| 50 nM | 2 nM | Nc1ncnc2nc(-c3ccc(N4CCOCC4)nc3)cc(-c3cccc(Br)c3)c12 | 25 µmol/kg | 0.6 µmol/kg |
| – | 400 nM | CN(C)c1ccc(-c2cnc3c(N)ncnc3n2)cc1 | – | – |
| 470 nM | 7 nM | CN(C)c1ccc(-c2cc(-c3ccccc3)c3c(N)ncnc3n2)cc1 | – | – |
| 170 nM | 5 nM | CN(C)c1ccc(-c2cc(-c3cccc(Br)c3)c3c(N)ncnc3n2)cc1 | 0.7 µmol/kg | 30 µmol/kg |
